Drawing on patent publication US8987250B2 (Gilead Sciences, Inc., priority 2012, dated 2015), this text covers EC50 for 27 molecules.

pEC50: −log10 of the molar value. Like-named read-outs stand apart in the source and are kept apart here.

For this test, the system named is HIV-IIIb. Put plainly: Test A: Antiviral Assay in MT4 Cells. It counts as cell-based. In a few lines: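 Read-out: CellTiter-Glo chemiluminescence after 5-day incubation at 37 °C. Compounds tested as 3-fold serial dilutions (10 concentrations, quadruplicate) in RPMI 1640 with 10% FBS, on MT-4 cells pre-infected at 37 °C with HIV-IIIb at 0.004 m.o.i.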
The mark [1] stands for this setting: Human immunodeficiency virus 1, IIIB, MT4, 120 h.
Where [2] appears, read: Human immunodeficiency virus 1, IIIB, MT4, 120 h, Table 2, MT-4 cells infected with HIV-IIIb, 5 days of incubation, CellTiter-Glo, read-out: EC50.
The mark [3] stands for this setting: Human immunodeficiency virus 1, IIIB, MT4, 120 h, Table 1, MT-4 cells infected with HIV-IIIb, 5 days of incubation, CellTiter-Glo, read-out: EC50.

Molecule `Cc1cc2nc(N3CCn4c(nnc4C(F)(F)F)C3)sc2c(-c2ccc(Cl)cc2)c1[C@H](OC(C)(C)C)C(=O)O` [Compound 250, (S)-2-tert-butoxy-2-(7-(4-chlorophenyl)-5-methyl-2-(3-(trifluoromethyl)-5,6-dihydro-[1,2,4]triazolo[4,3-a]pyrazin-7(8H)-yl)benzo[d]thiazol-6-yl)acetic acid] gave a pEC50 under setting [1] of 6.63.

As for `Cc1cc2nc(-c3ccnc(-n4ccc5ncccc5c4=O)c3)sc2c(-c2ccc(Cl)cc2)c1[C@H](OC(C)(C)C)C(=O)O` [Compound 447], the pEC50 under setting [2] is 8.30.

As for `Cc1cc2nc(-c3ccnc(-c4cnc5c(c4)OCCN5C)c3)sc2c(-c2ccc(Cl)cc2)c1[C@H](OC(C)(C)C)C(=O)O` [Compound 396], the pEC50 under setting [2] was 8.00.

Consider `Cc1cc2nc(-c3ccnc(-c4ccc5cc[nH]c(=O)c5c4)c3)sc2c(-c2ccc(Cl)cc2)c1[C@H](OC(C)(C)C)C(=O)O` [Compound 449], for which, under setting [2], the pEC50 is 7.52.

In the case of `Cc1cc2nc(-c3ccnc(-c4ccc5nn(C(F)F)cc5c4)c3)sc2c(-c2ccc(Cl)cc2)c1[C@H](OC(C)(C)C)C(=O)O` [Compound 176, (S)-2-tert-butoxy-2-(7-(4-chlorophenyl)-2-(2-(2-(difluoromethyl)-2H-indazol-5-yl)pyridin-4-yl)-5-methylbenzo[d]thiazol-6-yl)acetic acid], the pEC50 under setting [2] was 7.74.

As to `CCOc1ncc(-c2cc(-c3nc4cc(C)c([C@H](OC(C)(C)C)C(=O)O)c(-c5ccc(Cl)cc5)c4s3)ccn2)cn1` [Compound 403], the pEC50 under setting [2] was 7.38.

Take `Cc1cc2nc(-c3cc(-c4ccc5c(cnn5C)c4)ncc3F)sc2c(-c2ccc(Cl)cc2)c1[C@H](OC(C)(C)C)C(=O)O` [Compound 291, (S)-2-(tert-butoxy)-2-(7-(4-chlorophenyl)-2-(5-fluoro-2-(1-methyl-1H-indazol-5-yl)pyridin-4-yl)-5-methylbenzo[d]thiazol-6-yl)acetic acid]: the pEC50 under setting [2] is 7.12.

Consider `Cc1cc2nc(-c3ccnc(-c4cnc(O)nc4)c3)sc2c(-c2ccc(Cl)cc2)c1[C@H](OC(C)(C)C)C(=O)O` [Compound 134], for which the pEC50 under setting [3] is 5.49.

For the molecule `Cc1cc2nc(-c3ccnc(-c4cnc5ncn(C)c5c4)c3)sc2c(-c2ccc(Cl)cc2)c1[C@H](OC(C)(C)C)C(=O)O` [Compound 406], the pEC50 under setting [2] is 6.83.

Turning to `Cc1cc2nc(-c3ccnc(-c4cccc(C(N)=O)c4)c3)sc2c(-c2ccc(Cl)cc2)c1[C@H](OC(C)(C)C)C(=O)O` [Compound 155], under setting [3], the pEC50 is 7.18.

In the case of `Cc1cc2nc(N3CCc4nn(C)c(C)c4C3)sc2c(-c2ccc(Cl)cc2)c1[C@H](OC(C)(C)C)C(=O)O` [Compound 440], the pEC50 under setting [2] is 7.96.

In the case of `Cc1cc2nc(-c3ccc4c(c3)nc(C)n4C(C)C)sc2c(-c2ccc(Cl)cc2)c1[C@H](OC(C)(C)C)C(=O)O` [Compound 410], the pEC50 under setting [2] is 8.05.

`Cc1cc2nc(-c3cnc4c(c3)c(C)cn4C)sc2c(-c2ccc(Cl)cc2)c1[C@H](OC(C)(C)C)C(=O)O` [Compound 198, (S)-2-tert-butoxy-2-(7-(4-chlorophenyl)-2-(1,3-dimethyl-1H-pyrrolo[2,3-b]pyridin-5-yl)-5-methylbenzo[d]thiazol-6-yl)acetic acid]: the negative logarithm of the EC50 (pEC50) under setting [2] is 7.41.

Consider “(S)-2-tert-butoxy-2-(7-(4-chlorophenyl)-2-(3-(4,4-dimethylpiperazin-1-ium-1-yl)-1-methyl-1H-indazol-5-yl)-5-methylbenzo[d]thiazol-6-yl)acetate [Compound 494]”, for which the pEC50 (Table 2, MT-4 cells infected with HIV-IIIb, 5 days of incubation, CellTiter-Glo, read-out: EC50) is 5.54.

For `Cc1cc2nc(-c3ccnc(-c4cnn(C)c4C)c3)sc2c(-c2ccc(Cl)cc2)c1[C@H](OC(C)(C)C)C(=O)O` [Compound 376], under setting [2], the pEC50 was 7.72.

The molecule `Cc1cc2nc(-c3cncc(N4CCN(C(C)C)CC4)n3)sc2c(-c2ccc(Cl)cc2)c1[C@H](OC(C)(C)C)C(=O)O` [Compound 480, (S)-2-tert-butoxy-2-(7-(4-chlorophenyl)-2-(6-(4-isopropylpiperazin-1-yl)pyrazin-2-yl)-5-methylbenzo[d]thiazol-6-yl)acetic acid] gave a pEC50 under setting [1] of 8.70.

For the molecule `Cc1cc2nc(-c3cnc4c(c3)nc(C)n4C)sc2c(-c2ccc(Cl)cc2)c1[C@H](OC(C)(C)C)C(=O)O` [Compound 302, (S)-2-tert-butoxy-2-(7-(4-chlorophenyl)-2-(2,3-dimethyl-3H-imidazo[4,5-b]pyridin-6-yl)-5-methylbenzo[d]thiazol-6-yl)acetic acid], the pEC50 under setting [2] was 8.10.

As for `Cc1cc2nc(-c3cncc(-c4ccc5c(cnn5C)c4)n3)sc2c(-c2ccc(Cl)cc2)c1[C@H](OC(C)(C)C)C(=O)O` [Compound 131], the pEC50 under setting [3] was 8.10.

As to `Cc1cc2nc(-c3ccnc(N4Cc5ccncc5C4=O)c3)sc2c(-c2ccc(Cl)cc2)c1[C@H](OC(C)(C)C)C(=O)O` [Compound 241, (S)-2-tert-butoxy-2-(7-(4-chlorophenyl)-5-methyl-2-(2-(3-oxo-1H-pyrrolo[3,4-c]pyridin-2(3H)-yl)pyridin-4-yl)benzo[d]thiazol-6-yl)acetic acid], under setting [2], the pEC50 is 8.52.

In the case of `Cc1cc2nc(-c3ccnc(-c4ccc5c(c4)c(C4CC4)nn5C)c3)sc2c(-c2ccc(Cl)cc2)c1[C@H](OC(C)(C)C)C(=O)O` [Compound 139], the pEC50 under setting [3] was 7.21.

Regarding `Cc1cc2nc(N3CC(c4ccc5c(cnn5C)c4)CC3=O)sc2c(-c2ccc(Cl)cc2)c1[C@H](OC(C)(C)C)C(=O)O` (stereo partly drawn) [Compound 125, (2S)-2-tert-butoxy-2-(7-(4-chlorophenyl)-5-methyl-2-(4-(1-methyl-1H-indazol-5-yl)-2-oxopyrrolidin-1-yl)benzo[d]thiazol-6-yl)acetic acid], under setting [3], the pEC50 was 6.69.

Consider `Cc1cc2nc(-c3ccnc(-c4ccc5ccc(=O)n(C)c5c4)c3)sc2c(-c2ccc(Cl)cc2)c1[C@H](OC(C)(C)C)C(=O)O` [Compound 452], for which the pEC50 under setting [2] is 7.80.

Take `Cc1cc2nc(-c3ccc4ncn(C5CCN(C)CC5)c4c3)sc2c(-c2ccc(Cl)cc2)c1[C@H](OC(C)(C)C)C(=O)O` [Compound 414]: under setting [2], the pEC50 was 7.49.

With `Cc1cc2nc(N3CC(C)C3)sc2c(-c2ccc3c4c(ccnc24)CCO3)c1[C@H](OC(C)(C)C)C(=O)O` (atropisomer, axis not shown) [Compound 57, (S)-2-tert-butoxy-2-((S)-7-(2,3-dihydropyrano[4,3,2-de]quinolin-7-yl)-5-methyl-2-(3-methylazetidin-1-yl)benzo[d]thiazol-6-yl)acetic acid], the pEC50 under setting [3] was 6.83.

Turning to `Cc1cc2nc(-c3ccc4c(c3)c(N3CCN(C(C)C)CC3)nn4C)sc2c(-c2ccc(Cl)cc2)c1[C@H](OC(C)(C)C)C(=O)O` [Compound 269, (S)-2-tert-butoxy-2-(7-(4-chlorophenyl)-2-(3-(4-isopropylpiperazin-1-yl)-1-methyl-1H-indazol-5-yl)-5-methylbenzo[d]thiazol-6-yl)acetic acid], the pEC50 under setting [2] was 7.92.

`Cc1cc2nc(-c3ccnc(-c4ccc5c(ccc(=O)n5C)c4)c3)sc2c(-c2ccc(Cl)cc2)c1[C@H](OC(C)(C)C)C(=O)O` [Compound 191, (S)-2-tert-butoxy-2-(7-(4-chlorophenyl)-5-methyl-2-(2-(1-methyl-2-oxo-1,2-dihydroquinolin-6-yl)pyridin-4-yl)benzo[d]thiazol-6-yl)acetic acid]: the pEC50 under setting [2] is 8.00.

Turning to `COc1ncccc1-c1cccc(-c2nc3cc(C)c([C@H](OC(C)(C)C)C(=O)O)c(-c4ccc(Cl)cc4)c3s2)c1` [Compound 160], the pEC50 under setting [3] is 6.87.

By pEC50 is commonly meant −log10 of the EC50, conventionally taken in molar units.
